Source: patent publication US20210308120A1, “Use of Amitriptyline for Blocking Brain Hemichannels and Method for Potentiating its Effect in Vivo” (THERANEXUS, priority 2015, published 2021)

Experiments:
[1] = Pharmacokinetic of amitriptyline in brain and serum of SN-CCI rats; assay type: in vivo, rat; conditions: amitriptyline 12 mg/kg osmotic pump ± mefloquine 0.5 mg/kg i.p. bidaily, 14 days
Protocol: Blood was collected and kept 1 hour at 4° C. Then serum and brain were collected. Amitriptyline was quantified by HPLC and mass spectrometry (Crepta laboratory).
Osmotic mini-pumps (Alzet, model 2ML2), delivering for the following 14 days amitriptyline or vehicle were subcutaneously implanted.
After 14-day treatment, so 28 days after surgery, rats were sacrificed and brain as well as serum samples were collected to quantify amitriptyline.

[2] = test system: SN-CCI rats (neuropathic pain, hyperalgesia); test: Randall & Selitto test in SN-CCI rats, repeated administration every 150 minutes; assay type: in vivo, rat; conditions: amitriptyline alone i.p. every 150 min; at 90 and 240 min
Protocol: One week after their arrival, rats were anesthetized with sodium pentobarbital before exposing the common sciatic nerve. As described in Bennett's article, four chromic catgut (5-0) ligations were tied loosely proximally to the sciatic trifurcation (Bennett and Xie, 1988).
All behavioral assessments were conducted between 9 a.m. and 5 p.m. in a quiet room. An increasing pressure was applied to the right hind paw of SN-CCI (Sciatic Nerve-Chronic Constriction Injury) rat to evaluate hyperalgesia-like behavior (Viguier and al, 2013). Values correspond to the pressure threshold producing the paw withdrawal and then the vocalization of the rat.

[3] = biological target: T1, Cx43 hemichannels (Mus musculus, UniProt P23242); test: Hemichannel activity by ethidium bromide uptake in LPS-treated mouse cortical astrocyte cultures; assay type: cell-based; conditions: LPS 1 μg/mL and amitriptyline 5, 10 and 20 μM, 24 hours
T1 construct: Astrocyte cultures were prepared from cortex of rats and mice as previously described; endogenous in cells; host or cells: secondary cultures of mouse cortical astrocytes, LPS-treated
Protocol: Astrocyte cultures were prepared from cortex of rats and mice as previously described (Meme et al., 2006). Cells were seeded on polyornithine coated 35 mm dishes (5×10^5 cells/dish) or into 100-mm diameter plastic dishes at the density of 3×10^6 cells/dish. After 8-10 days, when cells grown into 35 mm in diameter plastic culture dishes have reached confluence, 1 μM of cytosine-arabinoside was added to the culture medium. In addition, when cells grown into 100 mm plastic culture dishes reached confluence, they were harvested with trypsin-EDTA. Then, cells were re-plated (2×10^5 cells per well), as secondary cultures, on glass coverslips placed inside 24-round-well plate. Finally, they were grown to confluence and cytosine-arabinoside was added. Medium was changed twice a week for all cells until the experiments were carried out. Hemichannel activity was evaluated in secondary cultures of cortical astrocytes by Ethidium Bromide (EtBr) uptake as already published (Orellana et al, 2011). 24 h before experiment, cells were pretreated or not with 1 μg/ml LPS known to open Cx43 HeC. The day of experiment, cells were first preincubated in HEPES buffer solution. Then, cells were exposed to 5 μM EtBr for 10 min at room temperature. Cells were then washed with the same buffer before fixation with 4% paraformaldehyde in PBS. Fixed cells were examined at 40× with a confocal laser-scanning microscope. Stacks of 10 consecutive confocal images taken at 0.49 μm intervals were acquired. For each experimental condition, 6 images were captured and then analyzed with Image J program (NIH software). LPS was added to mouse cortical astrocytic cultures during 24 hours to open Cx43 hemichannels and amitriptyline was also added during the same time to evaluate its action on hemichannel activity, quantified by cell uptake of ethidium bromide.

[4] = test system: mice subjected to FST; test: Forced Swim Test (FST); assay type: in vivo, mouse; conditions: 2nd 3-min period
Protocol: The FST is the most used rodent model for screening antidepressants (Porsolt et al, 1977). Mice were dropped individually in a glass cylinder (25 cm high, 9 cm diameter) filled with 10 cm 25° C. water. The experiment was recorded with a camcorder, placed in front of the glass cylinders. Video were scored at a later time by an experimenter blind to the treatments. The indices of depression-related behavior are the immobility time, the swimming time and the climbing time.
FST test evaluates the despair behavior which is commonly reversed by antidepressants. During FST, the swimming time of each mouse was measured on each 1-min period, on 1st and 2nd 3-min periods.

[5] = test system: neuropathic mice (cuff model, allodynia); test: Mechanical allodynia, von Frey test in sciatic nerve cuff model; assay type: in vivo, mouse
Protocol: Paw withdrawal thresholds of mice treated with either amitriptyline 6 mg/kg alone (AMIT 6) or amitriptyline 12 mg/kg alone (AMIT 12) are also shown (D). FIG. 10 (E) represents area under curve analysis.
Area under curve analysis are shown (B).
Neuropathic pain was induced to adult male C57BL/6J mice (Charles River, L'Arbresle, France) by cuffing the main branch of the right sciatic nerve (For detailed description and video illustration: Yalcin et al. 2014, J Vis Exp 89:e51608). Surgeries were performed under ketamine (68 mg/kg)/xylazine (10 mg/kg) intraperitoneal (i.p.) anesthesia (Centravet, Tadden, France). The common branch of the right sciatic nerve was exposed and a cuff of PE-20 polyethylene tubing (Harvard Apparatus, Les Ulis, France) of standardized length (2 mm) was unilaterally inserted around it (Cuff group). The shaved skin was closed using suture.
Injections were done once a day during the 17 first days of treatment, in the afternoon. As a single dose per day was ineffective, treatment was then done twice a day, morning and afternoon, from the 8 last days of treatment.
Mechanical allodynia was tested using von Frey hairs and results were expressed in grams (For detailed description and video illustration: Yalcin et al. 2014, J Vis Exp 89:e51608). Tests were done during the morning, starting at least 2 hours after lights on. Mice were placed in clear Plexiglas boxes (7 cm×9 cm×7 cm) on an elevated mesh screen. Calibrated von Frey filaments (Bioseb, Vitrolles, France) were applied to the plantar surface of each hindpaw until they just bent, in a series of ascending forces up to the mechanical threshold. Filaments were tested five times per paw and the paw withdrawal threshold was defined as the lower of two consecutive filaments for which three or more withdrawals out of the five trials were observed.
Mice were subjected to sciatic nerve cuffing and then tested with the von Frey test to evaluate allodynia quantified as pressure threshold.
Mice were subjected to sciatic nerve cuffing and then tested with the von Frey test to evaluate allodynia quantified as pressure threshold. Neuropathic mice, characterized by a decrease of pressure threshold after surgery, were then treated during 25 days and tested by the von Frey test during this period.

[6] = test system: REM sleep in mice; test: Quantification of sleep-wake episodes (REM sleep), EEG/EMG; assay type: in vivo, mouse; conditions: amitriptyline 1 mg/kg i.p., combined or not with mefloquine 1 mg/kg i.p.; vs control
From the text: Mice were implanted with cortical and muscle electrodes to record the electroencephalogram (EEG) and electromyogram (EMG) and to monitor the sleep-wake cycle. This implantation allows stable and long-lasting polysomnographic recordings (Parmentier et al, 2002).
Polysomnographic records were visually scored by 10-s epochs for wakefulness (W), slow wave sleep (SWS), and paradoxical or rapid eye movement (REM) sleep.
Mice were registered by electroencephalogram to quantify sleep-wake episodes.

[7] = rats; cited from earlier work

T1 sequence (P23242 whole entry): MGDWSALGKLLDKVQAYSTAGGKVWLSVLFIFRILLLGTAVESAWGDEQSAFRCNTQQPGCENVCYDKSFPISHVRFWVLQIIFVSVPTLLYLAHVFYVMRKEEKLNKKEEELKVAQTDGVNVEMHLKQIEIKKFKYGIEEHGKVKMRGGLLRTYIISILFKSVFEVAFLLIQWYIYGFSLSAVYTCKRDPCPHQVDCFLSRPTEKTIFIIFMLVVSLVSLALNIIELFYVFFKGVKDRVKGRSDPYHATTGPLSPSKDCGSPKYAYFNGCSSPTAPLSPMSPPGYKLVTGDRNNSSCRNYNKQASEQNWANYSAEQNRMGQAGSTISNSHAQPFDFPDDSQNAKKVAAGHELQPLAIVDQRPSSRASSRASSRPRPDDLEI

Amitriptyline concentration in brain, with vs without mefloquine [1]: No changes
Amitriptyline concentration in serum, with vs without mefloquine [1]: No changes
Amitriptyline ratio brain/plasma, with vs without mefloquine [1]: no significant difference
SMILES: CN(C)CCC=C1c2ccccc2CCc2ccccc21 [amitriptyline, 3-(5,6-dihydrodibenzo[2,1-b:2′,1′-f][7]annulen-11-ylidene)-N,N-dimethylpropan-1-amine]
Paw withdrawal threshold [2]: did not induce significant effect on its own
HC activity (ethidium bromide uptake) after LPS-induced opening [3]: reversed this increase at the three tested doses
Swimming time ([4]; amitriptyline 12 mg/kg per os alone): not significant
Swimming time ([4]; amitriptyline 24 mg/kg per os, single): significant increase of the swimming time
Paw withdrawal threshold (von Frey) ([5]; amitriptyline 6 mg/kg i.p. chronic, alone): no changes of paw withdrawal
Paw withdrawal threshold (von Frey) ([5]; amitriptyline 12 mg/kg i.p. chronic, in comparison with amitriptyline 6 mg/kg): significant increase of the paw withdrawal threshold from day 32 to day 34
Effective equivalent dose of amitriptyline when administered in combination with mefloquine ([5]; relative to active dose of amitriptyline alone): about 0.5
REM sleep duration [6]: did not induce significant reduction on its own
Half-life [7]: 2.5 h
